According to US5945407A, “Methods and compositions using butyrate esters of threitol” (Vertex Pharmaceuticals, Incorporated, priority 1998, dated 1999):
One block for each molecule: values may come before it.

Columns and labels:
[1] = system: tumor and leukemia in mice; conditions: cited from earlier work
[2] = Pharmacokinetic variability of serum butyrate (standard deviation of a parameter such as Cmax or AUC divided by its mean); format: in vivo
Text: Pharmacokinetic variability is the measure of differences in the serum butyrate concentrations between different patients administered the same amount of butyrate esters of threitol. Pharmacokinetic variability is quantified by dividing the standard deviation for a given parameter, such as Cmax or AUC, by the mean value of that parameter, in a series of patients given dose the same dosage of butyrate ester of threitol.

fetal hemoglobin = conditions: sickle cell anemia patients; cited from earlier work
[3] = leukemia patients; continuous infusions of sodium butyrate; cited from earlier work
[4] = Oral bioavailability and sustenance of plasma concentrations of butyric acid in rats after oral gavage; format: in vivo, rats (Sprague Dawley); conditions: rat; for AUC: butyric acid in plasma, oral gavage, mean ± SD
Procedure: We evaluated oral bioavailability and sustenance of plasma concentrations of butyric acid in rats receiving tetrabutyrate esters of threitol and tributyrin by oral gavage.
This assay was carried out according to the protocol described in Daniel et al., Clinca Chimica Acta., 181, pp. 255-64 (1989); Planchon et al., J. Pharm. Sci., 82, pp. 1046-48 (1993); Pouillart et al., J. Pharm Sci., 81, pp. 241-44 (1992). Each compound was tested in five to six rats (Sprague Dawley; Harlan Labs, Inc.) weighing approximately 300 grams each. In that table, data are expressed as mean ± standard deviation (range) and were compared using the unpaired Student's t-test.

[5] = system: Cultured Erythroleukemic Cells; conditions: in vitro; cited from earlier work
leukemia patients = conditions: by inducing cell differentiation; cited from earlier work
in vitro = conditions: cell culture

SMILES: CCCC(=O)O [arginine butyrate]
anti-tumor and anti-leukemia effects [1]: anti-tumor and anti-leukemia effects

pharmacokinetic variability ([2]; in vivo): 35-40%
SMILES: CCCC(=O)OC[C@H](OC(=O)CCC)[C@@H](COC(=O)CCC)OC(=O)CCC [tetrabutyrate ester of mesothreitol]

SMILES: NC(=O)NO [hydroxyurea]
fetal hemoglobin production (fetal hemoglobin): stimulates fetal hemoglobin production
sickling crisis (fetal hemoglobin): reduces sickling crisis

SMILES: CCCC(=O)[O-].[Na+] [sodium butyrate]
plasma half-life of butyric acid [3]: 6 min

AUC ([4]; 3.0 gm/kg): 1590 ± 930 µM·h
oral bioavailability (to provide therapeutic plasma levels of butyric acid) ([4]; oral): orally bioavailable
variability of release of butyric acid in vivo ([4]; oral, tetrabutyrate esters of threitol vs tributyrin): more variable
pharmacokinetic variability ([2]; standard deviation / mean of a parameter such as Cmax or AUC): 70%
SMILES: CCCC(=O)OCC(COC(=O)CCC)OC(=O)CCC [tributyrin]

AUC ([4]; 2.4 gm/kg): 1200 ± 400 µM·h
SMILES: CCCC(=O)OC[C@H](OC(=O)CCC)[C@H](COC(=O)CCC)OC(=O)CCC [l-threitol tetrabutyrate ester]

MCC (in vitro): > 3 mM
SMILES: CCCC(=O)O [butyric acid]
cell differentiation [5]: induces cell differentiation
effect in leukemia patients (leukemia patients): promising effects

AUC ([4]; 2.8 gm/kg): 900 ± 260 µM·h
SMILES: CCCC(=O)OC[C@@H](OC(=O)CCC)[C@@H](COC(=O)CCC)OC(=O)CCC [d-threitol tetrabutyrate ester]
